# Experimental data: patent US6906205B2, “Spiro and dispiro 1,2,4-trioxolane antimalarials” (Medicines for Malaria Venture MMV, priority 2002, dated 2005)
# Read-outs that look alike come from different tables or passages of the source.
# How the values were obtained:
# [1] = system: ANKA strain of P. berghei; assay: single dose STI in vivo screen in infected mice; design: species or system Plasmodium berghei; conditions: for Activity (%) po / Activity (%) sc / Activity (%) SSVpo / Activity (%) 10 mg/kg SSV po / Activity (%) 3 mg/kg SSV po: percent reduction in parasitemia day 3 post-infection; for Activity (%) po / Survival (days) po: single 10 mg/kg po in 3% ethanol and 7% Tween 80; for Activity (%) po / Activity (%) sc / Activity (%) SSVpo: mice; for Activity (%) sc / Survival (days) sc: single 10 mg/kg sc in 3% ethanol and 7% Tween 80; for Survival (days) po / Survival (days) sc / Survival (days) SSVpo: untreated control 5.6 ± 0.3; for Activity (%) SSVpo: single po dose in standard suspending vehicle (SSV); for Survival (days) SSVpo: single po dose in SSV; for Activity (%) 10 mg/kg SSV po / Survival (days) 10 mg/kg SSV po: single 10 mg/kg po in SSV; for Activity (%) 3 mg/kg SSV po: single 3 mg/kg po in SSV
# Procedure: In the single dose STI in vivo screen, Moro SPF or NMRI mice infected with the ANKA strain of P. berghei (groups of 3-5 mice) were treated on day one post-infection with trioxolanes dissolved or suspended in 3% ethanol and 7% Tween 80. […] SSV consists of 0.5% w/v CMC, 0.5% v/v benzyl alcohol, 0.4% v/v Tween 80, and 0.9% w/v sodium chloride in water. Antimalarial activity was measured by percent reduction in parasitemia on day three post-infection and survival times compared to an untreated control group. Survival to day 30 post-infection is considered to be a cure. […] Other factors influencing antimalarial activity include the stability of carbon radicals formed by β-scission subsequent to the initial electron transfer to the peroxide bond and the influence of steric effects remote from the peroxide bond on the interactions between carbon radicals and potential drug targets.
# [2] = system: P. falciparum K1 strain (Thailand resistant to chloroquine); assay: semiautomated microdilution assay, [3H]-hypoxanthine incorporation, K1 strain; type: cell-based, Plasmodium falciparum; conditions: for IC50: Plasmodium falciparum, read-out: IC50 (ng/ml) K1
# Procedure: (§1) Various OZ compounds were tested by the semiautomated microdilution assay against intraerythrocytic forms of Plasmodium falciparum derived from asynchronous stock cultures.
# (§2) Fifty percent inhibitory concentration (IC50) were estimated by Logit regression analysis.
# [3] = system: P. falciparum NF54 strain (sensitive to standard antimalarials); assay: semiautomated microdilution assay, [3H]-hypoxanthine incorporation, NF54 strain; type: cell-based, Plasmodium falciparum; conditions: for IC50: Plasmodium falciparum, read-out: IC50 (ng/ml) NF54
# Procedure: as §1, §2
smiles,measurement,setting,value
C1CCC2(CC1)OOC1(CCCCC1)O2 [OZ01],Activity (%) po,[1],0/NA/0^1%
same,Activity (%) sc,[1],0/NA/0^1%
same,Survival (days) po,[1],5.3/NA/5.3^1 days
same,Survival (days) sc,[1],5.3/NA/5.3^1 days
same,IC50 (ng/ml) K1,"[2]; K1 strain, 72 h incubation",>100/>100 ng/ml
same,IC50 (ng/ml) NF54,"[3]; NF54 strain, 72 h incubation",>100/>100 ng/ml
O=C1CCC2(CC1)OOC1(CCCCC1)O2 [OZ02],Activity (%) po,[1],0/NA/0^1%
same,Activity (%) sc,[1],0/NA/0^1%
same,Survival (days) po,[1],5.0/NA/5.0^1 days
same,Survival (days) sc,[1],5.0/NA/5.0^1 days
same,IC50 (ng/ml) K1,"[2]; K1 strain, 72 h incubation",> 100 ng/mL
same,IC50 (ng/ml) NF54,"[3]; NF54 strain, 72 h incubation",94 ng/mL
FC1CCCCC12OOC1(CCCCC1)O2 (stereo not drawn) [OZ06],Survival (days) po,[1],1.0/NA/1.0^1 days
same,Survival (days) sc,[1],1.0/NA/1.0^1 days
same,IC50 (ng/ml) K1,"[2]; K1 strain, 72 h incubation",18 ng/mL
same,IC50 (ng/ml) NF54,"[3]; NF54 strain, 72 h incubation",22 ng/mL
CCOC(=O)CCC1CCCCC12OOC1(CCCCC1)O2 (stereo not drawn) [OZ07],Activity (%) po,[1],0/NA/0^1%
same,Activity (%) sc,[1],0/NA/0^1%
same,Survival (days) po,[1],6.0 days
same,Survival (days) sc,[1],5.7 days
same,IC50 (ng/ml) K1,"[2]; K1 strain, 72 h incubation",66 ng/mL
same,IC50 (ng/ml) NF54,"[3]; NF54 strain, 72 h incubation",49 ng/mL
C1CCC2(CC1)OOC1(CCC3(CC1)OOC1(CCCCC1)O3)O2 (stereo not drawn) [OZ09],Activity (%) po,[1],0%
same,Activity (%) sc,[1],81%
same,Survival (days) po,[1],5.0 days
same,Survival (days) sc,[1],6.3 days
same,IC50 (ng/ml) K1,"[2]; K1 strain, 72 h incubation",32 ng/mL
same,IC50 (ng/ml) NF54,"[3]; NF54 strain, 72 h incubation",39 ng/mL
O=C1CC2CC(C1)CC1(C2)OOC2(O1)C1CC3CC(C1)CC2C3 (stereo not drawn) [OZ13],Activity (%) po,[1],56%
same,Activity (%) sc,[1],99.7%
same,Survival (days) po,[1],6.7 days
same,Survival (days) sc,[1],9.7 days
same,IC50 (ng/ml) K1,"[2]; K1 strain, 72 h incubation",0.40 ng/mL
same,IC50 (ng/ml) NF54,"[3]; NF54 strain, 72 h incubation",0.50 ng/mL
O=C1CCC2(CCO1)OOC1(O2)C2CC3CC(C2)CC1C3 (stereo not drawn) [OZ17],Activity (%) po,[1],0%
same,Activity (%) sc,[1],18%
same,Survival (days) po,[1],5.3 days
same,Survival (days) sc,[1],6.3 days
same,IC50,"[2]; K1 strain, 72 h incubation",85 ng/mL
same,IC50,"[3]; NF54 strain, 72 h incubation",> 100 ng/mL
OC1CCC2(CC1)OOC1(O2)C2CC3CC(C2)CC1C3 (stereo not drawn) [OZ32],Activity (%) po,[1],79%
same,Activity (%) sc,[1],91%
same,Activity (%) SSVpo,[1],93%
same,Survival (days) po,[1],6.7 days
same,Survival (days) sc,[1],8.7 days
same,Survival (days) SSVpo,[1],7.0 days
same,IC50,"[2]; K1, 72 h",0.25 ng/mL
same,IC50,"[3]; NF54, 72 h",0.51 ng/mL
c1ccc(C2(c3ccccc3)CCC3(CC2)OOC2(O3)C3CC4CC(C3)CC2C4)cc1 (stereo not drawn) [OZ34],Activity (%) po,[1],0/NA/0%
same,Activity (%) sc,[1],0/NA/0%
same,Survival (days) po,[1],5.3 days
same,Survival (days) sc,[1],5.7 days
same,IC50 (ng/ml) K1,"[2]; K1 strain, 72 h incubation",42 ng/mL
same,IC50 (ng/ml) NF54,"[3]; NF54 strain, 72 h incubation",60 ng/mL
O=C1c2ccccc2C(=O)N1N=C1CCC2(CC1)OOC1(O2)C2CC3CC(C2)CC1C3 (stereo not drawn) [OZ38],Activity (%) po,[1],83%
same,Activity (%) sc,[1],99.98%
same,Activity (%) SSVpo,[1],15%
same,Survival (days) po,[1],6.7 days
same,Survival (days) sc,[1],25.3 days
same,Survival (days) SSVpo,[1],5.0 days
same,IC50 (ng/ml) K1,"[2]; K1 strain, 72 h incubation",0.86 ng/mL
same,IC50 (ng/ml) NF54,"[3]; NF54 strain, 72 h incubation",1.3 ng/mL
Cc1ccc(S(=O)(=O)NN=C2CCC3(CC2)OOC2(O3)C3CC4CC(C3)CC2C4)cc1 (stereo not drawn) [OZ39],Activity (%) po,[1],61%
same,Activity (%) sc,[1],99.3%
same,Survival (days) po,[1],6.3 days
same,Survival (days) sc,[1],7.7 days
same,IC50 (ng/ml) K1,"[2]; K1 strain, 72 h incubation",1.4 ng/mL
same,IC50 (ng/ml) NF54,"[3]; NF54 strain, 72 h incubation",1.8 ng/mL
CC(C)C1CCC2(CC1)OOC1(O2)C2CC3CC(C2)CC1C3 (stereo not drawn) [OZ40],Activity (%) po,[1],99%
same,Activity (%) sc,[1],99.8%
same,Survival (days) po,[1],7.3 days
same,Survival (days) sc,[1],9.0 days
same,IC50 (ng/ml) K1,"[2]; K1 strain, 72 h incubation",1.4 ng/mL
same,IC50 (ng/ml) NF54,"[3]; NF54 strain, 72 h incubation",2.0 ng/mL
Fc1ccc(C2CCC3(CC2)OOC2(O3)C3CC4CC(C3)CC2C4)cc1 (stereo not drawn) [OZ41],Activity (%) po,[1],99.98%
same,Activity (%) sc,[1],99.5%
same,Activity (%) SSVpo,[1],81%
same,Survival (days) po,[1],12.1 days
same,Survival (days) sc,[1],10.7 days
same,Survival (days) SSVpo,[1],6.8 days
same,IC50 (ng/ml) K1,"[2]; K1 strain, 72 h incubation",3.5 ng/mL
same,IC50 (ng/ml) NF54,"[3]; NF54 strain, 72 h incubation",4.6 ng/mL
c1ccc(C2(c3ccccc3)OOC3(O2)C2CC4CC(C2)CC3C4)cc1 (stereo not drawn) [OZ42],Activity (%) po,[1],68%
same,Activity (%) sc,[1],92%
same,Survival (days) po,[1],6.0 days
same,Survival (days) sc,[1],7.0 days
same,IC50 (ng/ml) K1,"[2]; K1 strain, 72 h incubation",2.3 ng/mL
same,IC50 (ng/ml) NF54,"[3]; NF54 strain, 72 h incubation",2.6 ng/mL
Fc1ccc(C2(c3ccc(F)cc3)OOC3(O2)C2CC4CC(C2)CC3C4)cc1 (stereo not drawn) [OZ44],Activity (%) po,[1],99.3%
same,Activity (%) sc,[1],99.9%
same,Survival (days) po,[1],7.0 days
same,Survival (days) sc,[1],8.3 days
same,IC50 (ng/ml) K1,"[2]; K1 strain, 72 h incubation",2.5 ng/mL
same,IC50 (ng/ml) NF54,"[3]; NF54 strain, 72 h incubation",2.3 ng/mL
Fc1c(F)c(F)c(C2(c3c(F)c(F)c(F)c(F)c3F)OOC3(O2)C2CC4CC(C2)CC3C4)c(F)c1F (stereo not drawn) [OZ45],Activity (%) po,[1],15%
same,Activity (%) sc,[1],16%
same,Survival (days) po,[1],6.0 days
same,Survival (days) sc,[1],5.0 days
same,IC50 (ng/ml) K1,"[2]; K1 strain, 72 h incubation",17 ng/mL
same,IC50 (ng/ml) NF54,"[3]; NF54 strain, 72 h incubation",27 ng/mL
Clc1ccc(C2CCC3(CC2)OOC2(O3)C3CC4CC(C3)CC2C4)cc1 (stereo not drawn) [OZ47],Activity (%) po,[1],99.98%
same,Activity (%) sc,[1],99%
same,Survival (days) po,[1],12.7 days
same,Survival (days) sc,[1],8.0 days
same,IC50 (ng/ml) K1,"[2]; K1 strain, 72 h incubation",7.5 ng/mL
same,IC50 (ng/ml) NF54,"[3]; NF54 strain, 72 h incubation",7.4 ng/mL
C1CCC(NC2CCC3(CC2)OOC2(O3)C3CC4CC(C3)CC2C4)CC1 (stereo not drawn) [OZ162],IC50 (ng/ml) K1,"[2]; K1 strain, 72 h incubation",0.50 ng/mL
same,IC50 (ng/ml) NF54,"[3]; NF54 strain, 72 h incubation",0.71 ng/mL
CC(C)(C)CC(=O)N[C@H]1CC[C@]2(CC1)OOC1(O2)C2CC3CC(C2)CC1C3 (stereo partly drawn) [OZ195],IC50 (ng/ml) K1,"[2]; K1 strain, 72 h incubation",2.2 ng/mL
same,IC50 (ng/ml) NF54,"[3]; NF54 strain, 72 h incubation",3.7 ng/mL
O=C1CCC(=O)N1C[C@H]1CC[C@]2(CC1)OOC1(O2)C2CC3CC(C2)CC1C3 (stereo partly drawn) [OZ197],IC50 (ng/ml) K1,"[2]; K1 strain, 72 h incubation",1.0 ng/mL
same,IC50 (ng/ml) NF54,"[3]; NF54 strain, 72 h incubation",2.0 ng/mL
NCC[C@H]1CC[C@]2(CC1)OOC1(O2)C2CC3CC(C2)CC1C3 (stereo partly drawn) [OZ229],IC50 (ng/ml) K1,"[2]; K1 strain, 72 h incubation",0.24 ng/mL
same,IC50 (ng/ml) NF54,"[3]; NF54 strain, 72 h incubation",0.23 ng/mL
OC1(Cc2nc3ccccc3s2)CCC2(CC1)OOC1(O2)C2CC3CC(C2)CC1C3 (stereo not drawn) [OZ276],Activity (%) 10 mg/kg SSV po,[1],17/ND %
same,Survival (days) 10 mg/kg SSV po,[1],7.3/ND days
same,IC50 (ng/ml) NF54,"[3]; NF54 strain, 72 h incubation",0.94 ng/mL
CCOC(=O)NC[C@H]1CC[C@]2(CC1)OO[C@]1(O2)C2CC3CC(C2)CC1C3 [OZ289],Activity (%) 3 mg/kg SSV po,[1],92%
same,IC50 (ng/ml) NF54,"[3]; NF54 strain, 72 h incubation",0.56 ng/mL
O=c1ccn(C[C@H]2CC[C@]3(CC2)OO[C@]2(O3)C3CC4CC(C3)CC2C4)cc1 [OZ302],Activity (%) 3 mg/kg SSV po,[1],88%
same,Activity (%) 10 mg/kg SSV po,[1],99.60%
same,IC50 (ng/ml) NF54,"[3]; NF54 strain, 72 h incubation",2.9 ng/mL
C[C@H](N)C(=O)NC[C@H]1CC[C@]2(CC1)OO[C@]1(O2)C2CC3CC(C2)CC1C3 [OZ335],Activity (%) 3 mg/kg SSV po,[1],97%
same,Activity (%) 10 mg/kg SSV po,[1],99.95%
same,Survival (days) 10 mg/kg SSV po,[1],9.2 days
same,IC50 (ng/ml) NF54,"[3]; NF54 strain, 72 h incubation",0.28 ng/mL
